Test system: 282377-053-R-J1-PDC complex spheroids, viability
Test: Anticancer human tumor 282377-053-R-J1-PDC patient-derived colon adenocarcinoma cell line growth inhibition [GQUAD]
Settings: for IC50: curve of first compound; for viability, T/C: stronger effect = lower value
In short: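 Tumor cells were grown as complex spheroids with HUVEC endothelial cells and mesenchymal stem cells as stroma. G-quadruplex stabilizers were combined with targeted agents over half-log dilutions from near the clinical Cmax, or from 10 microM.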

[1] = second compound 0.0316 µM, first compound 0.000999 µM
[2] = second compound 0.0316 µM, first compound 0.00316 µM
[3] = second compound 0.0316 µM, first compound 0.00999 µM
[4] = second compound 0.0316 µM, first compound 0.0316 µM
[5] = second compound 0.0316 µM, first compound 0.0999 µM
[6] = second compound 0.0316 µM, first compound 0.316 µM
[7] = second compound 0.1 µM, first compound 0.000999 µM
[8] = second compound 0.1 µM, first compound 0.00316 µM
[9] = second compound 0.1 µM, first compound 0.00999 µM
[10] = second compound 0.1 µM, first compound 0.0316 µM
[11] = second compound 0.1 µM, first compound 0.0999 µM
[12] = second compound 0.1 µM, first compound 0.316 µM
[13] = second compound 0.316 µM, first compound 0.000999 µM
[14] = second compound 0.316 µM, first compound 0.00316 µM
[15] = second compound 0.316 µM, first compound 0.00999 µM
[16] = second compound 0.316 µM, first compound 0.0316 µM
[17] = second compound 0.316 µM, first compound 0.0999 µM
[18] = second compound 0.316 µM, first compound 0.316 µM
[19] = second compound 1 µM, first compound 0.000999 µM
[20] = second compound 1 µM, first compound 0.00316 µM
[21] = second compound 1 µM, first compound 0.00999 µM
[22] = second compound 1 µM, first compound 0.0316 µM
[23] = second compound 1 µM, first compound 0.0999 µM
[24] = second compound 1 µM, first compound 0.316 µM
[25] = second compound 3.16 µM, first compound 0.000999 µM
[26] = second compound 3.16 µM, first compound 0.00316 µM
[27] = second compound 3.16 µM, first compound 0.00999 µM
[28] = second compound 3.16 µM, first compound 0.0316 µM
[29] = second compound 3.16 µM, first compound 0.0999 µM
[30] = second compound 3.16 µM, first compound 0.316 µM
[31] = second compound 10 µM, first compound 0.000999 µM
[32] = second compound 10 µM, first compound 0.00316 µM
[33] = second compound 10 µM, first compound 0.00999 µM
[34] = second compound 10 µM, first compound 0.0316 µM
[35] = second compound 10 µM, first compound 0.0999 µM
[36] = second compound 10 µM, first compound 0.316 µM
[37] = second compound 0.0316 µM, first compound 0.1 µM
[38] = second compound 0.0316 µM, first compound 1 µM
[39] = second compound 0.0316 µM, first compound 3.16 µM
[40] = second compound 0.0316 µM, first compound 10 µM
[41] = second compound 0.1 µM, first compound 0.1 µM
[42] = second compound 0.1 µM, first compound 1 µM
[43] = second compound 0.1 µM, first compound 3.16 µM
[44] = second compound 0.1 µM, first compound 10 µM
[45] = second compound 0.316 µM, first compound 0.1 µM
[46] = second compound 0.316 µM, first compound 1 µM
[47] = second compound 0.316 µM, first compound 3.16 µM
[48] = second compound 0.316 µM, first compound 10 µM
[49] = second compound 1 µM, first compound 0.1 µM
[50] = second compound 1 µM, first compound 1 µM
[51] = second compound 1 µM, first compound 3.16 µM
[52] = second compound 1 µM, first compound 10 µM
[53] = second compound 3.16 µM, first compound 0.1 µM
[54] = second compound 3.16 µM, first compound 1 µM
[55] = second compound 3.16 µM, first compound 3.16 µM
[56] = second compound 3.16 µM, first compound 10 µM
[57] = second compound 10 µM, first compound 0.1 µM
[58] = second compound 10 µM, first compound 1 µM
[59] = second compound 10 µM, first compound 3.16 µM
[60] = second compound 10 µM, first compound 10 µM
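Further: spheroids exposed to compounds for 7 days before readout.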
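Wherever viability, T/C is given: percent of vehicle DMSO control viability with 100% = untreated-like growth.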

## CC[C@@]1(O)C(=O)OCc2c1cc1n(c2=O)Cc2cc3c(CN(C)C)c(O)ccc3nc2-1 + Cc1[nH]c2ccc(F)cc2c1-c1nc2c3cccnc3c3ncccc3c2[nH]1
Second compound 0.0316 µM
  IC50: > 0.316 µM
Second compound 0.1 µM
  IC50: > 0.316 µM
Second compound 0.316 µM
  IC50: > 0.316 µM
Second compound 1 µM
  IC50: > 0.316 µM
Second compound 3.16 µM
  IC50: 0.13 µM
Second compound 10 µM
  IC50: < 0.000999 µM
[1]
  viability, T/C: 92.6%
[2]
  viability, T/C: 117%
[3]
  viability, T/C: 116%
[4]
  viability, T/C: 93.1%
[5]
  viability, T/C: 91.5%
[6]
  viability, T/C: 49.9%
[7]
  viability, T/C: 126%
[8]
  viability, T/C: 93.2%
[9]
  viability, T/C: 87.1%
[10]
  viability, T/C: 92%
[11]
  viability, T/C: 93.2%
[12]
  viability, T/C: 58.8%
[13]
  viability, T/C: 80.3%
[14]
  viability, T/C: 104%
[15]
  viability, T/C: 103%
[16]
  viability, T/C: 94.2%
[17]
  viability, T/C: 84%
[18]
  viability, T/C: 61.9%
[19]
  viability, T/C: 86.6%
[20]
  viability, T/C: 109%
[21]
  viability, T/C: 94.8%
[22]
  viability, T/C: 102%
[23]
  viability, T/C: 94.8%
[24]
  viability, T/C: 54.3%
[25]
  viability, T/C: 77.8%
[26]
  viability, T/C: 79.4%
[27]
  viability, T/C: 81.4%
[28]
  viability, T/C: 58.3%
[29]
  viability, T/C: 64%
[30]
  viability, T/C: 24.5%
[31]
  viability, T/C: 36.6%
[32]
  viability, T/C: 35.9%
[33]
  viability, T/C: 48.3%
[34]
  viability, T/C: 41.5%
[35]
  viability, T/C: 31.3%
[36]
  viability, T/C: 17.5%

## Cc1[nH]c2ccccc2c1CCNCc1ccc(/C=C/C(=O)NO)cc1 + Cc1[nH]c2ccc(F)cc2c1-c1nc2c3cccnc3c3ncccc3c2[nH]1
Second compound 0.0316 µM
  IC50: > 0.316 µM
Second compound 0.1 µM
  IC50: > 0.316 µM
Second compound 0.316 µM
  IC50: > 0.316 µM
Second compound 1 µM
  IC50: > 0.316 µM
Second compound 3.16 µM
  IC50: 0.196 µM
Second compound 10 µM
  IC50: < 0.000999 µM
[1]
  viability, T/C: 87.8%
[2]
  viability, T/C: 100%
[3]
  viability, T/C: 105%
[4]
  viability, T/C: 90.3%
[5]
  viability, T/C: 93%
[6]
  viability, T/C: 96.8%
[7]
  viability, T/C: 97.4%
[8]
  viability, T/C: 98.9%
[9]
  viability, T/C: 79.9%
[10]
  viability, T/C: 89.9%
[11]
  viability, T/C: 74.6%
[12]
  viability, T/C: 70.7%
[13]
  viability, T/C: 102%
[14]
  viability, T/C: 106%
[15]
  viability, T/C: 74.6%
[16]
  viability, T/C: 97.4%
[17]
  viability, T/C: 97.8%
[18]
  viability, T/C: 96.1%
[19]
  viability, T/C: 116%
[20]
  viability, T/C: 95.8%
[21]
  viability, T/C: 93.8%
[22]
  viability, T/C: 101%
[23]
  viability, T/C: 87.9%
[24]
  viability, T/C: 88.1%
[25]
  viability, T/C: 70.8%
[26]
  viability, T/C: 75.7%
[27]
  viability, T/C: 60.9%
[28]
  viability, T/C: 66.2%
[29]
  viability, T/C: 67.1%
[30]
  viability, T/C: 38.1%
[31]
  viability, T/C: 32.5%
[32]
  viability, T/C: 33.9%
[33]
  viability, T/C: 52.2%
[34]
  viability, T/C: 34.4%
[35]
  viability, T/C: 22.3%
[36]
  viability, T/C: 25.2%

## Nc1ccn(C2OC(CO)C(O)C2(F)F)c(=O)n1 (stereo not drawn) + Cc1[nH]c2ccc(F)cc2c1-c1nc2c3cccnc3c3ncccc3c2[nH]1
Second compound 0.0316 µM
  IC50: 0.211 µM
Second compound 0.1 µM
  IC50: 0.222 µM
Second compound 0.316 µM
  IC50: 0.216 µM
Second compound 1 µM
  IC50: 0.228 µM
Second compound 3.16 µM
  IC50: 0.081 µM
Second compound 10 µM
  IC50: < 0.0316 µM
[4]
  viability, T/C: 119%
[37]
  viability, T/C: 74.1%
[6]
  viability, T/C: 35.8%
[38]
  viability, T/C: 30.9%
[39]
  viability, T/C: 29.4%
[40]
  viability, T/C: 21.1%
[10]
  viability, T/C: 106%
[41]
  viability, T/C: 81.1%
[12]
  viability, T/C: 35.8%
[42]
  viability, T/C: 29.5%
[43]
  viability, T/C: 31.8%
[44]
  viability, T/C: 18.9%
[16]
  viability, T/C: 97%
[45]
  viability, T/C: 86.3%
[18]
  viability, T/C: 32%
[46]
  viability, T/C: 28.4%
[47]
  viability, T/C: 26.7%
[48]
  viability, T/C: 20.5%
[22]
  viability, T/C: 105%
[49]
  viability, T/C: 74.4%
[24]
  viability, T/C: 37.4%
[50]
  viability, T/C: 30.1%
[51]
  viability, T/C: 23%
[52]
  viability, T/C: 16%
[28]
  viability, T/C: 74.8%
[53]
  viability, T/C: 44.5%
[30]
  viability, T/C: 18.8%
[54]
  viability, T/C: 14.9%
[55]
  viability, T/C: 17.6%
[56]
  viability, T/C: 9.41%
[34]
  viability, T/C: 39.2%
[57]
  viability, T/C: 28.9%
[36]
  viability, T/C: 16.2%
[58]
  viability, T/C: 10.3%
[59]
  viability, T/C: 10.9%
[60]
  viability, T/C: 8.65%

## O=c1[nH]cc(F)c(=O)[nH]1 + Cc1[nH]c2ccc(F)cc2c1-c1nc2c3cccnc3c3ncccc3c2[nH]1
Second compound 0.0316 µM
  IC50: > 10 µM
Second compound 0.1 µM
  IC50: > 10 µM
Second compound 0.316 µM
  IC50: > 10 µM
Second compound 1 µM
  IC50: > 10 µM
Second compound 3.16 µM
  IC50: > 10 µM
Second compound 10 µM
  IC50: < 0.0316 µM
[4]
  viability, T/C: 92.8%
[37]
  viability, T/C: 104%
[6]
  viability, T/C: 126%
[38]
  viability, T/C: 88.8%
[39]
  viability, T/C: 78.2%
[40]
  viability, T/C: 74%
[10]
  viability, T/C: 110%
[41]
  viability, T/C: 111%
[12]
  viability, T/C: 114%
[42]
  viability, T/C: 87.5%
[43]
  viability, T/C: 84.1%
[44]
  viability, T/C: 82%
[16]
  viability, T/C: 115%
[45]
  viability, T/C: 106%
[18]
  viability, T/C: 93.7%
[46]
  viability, T/C: 95.1%
[47]
  viability, T/C: 75.8%
[48]
  viability, T/C: 69.3%
[22]
  viability, T/C: 108%
[49]
  viability, T/C: 112%
[24]
  viability, T/C: 117%
[50]
  viability, T/C: 91.2%
[51]
  viability, T/C: 76.4%
[52]
  viability, T/C: 68.4%
[28]
  viability, T/C: 75.7%
[53]
  viability, T/C: 80.2%
[30]
  viability, T/C: 72%
[54]
  viability, T/C: 49.9%
[55]
  viability, T/C: 58.8%
[56]
  viability, T/C: 54.1%
[34]
  viability, T/C: 41.1%
[57]
  viability, T/C: 40.5%
[36]
  viability, T/C: 50.8%
[58]
  viability, T/C: 42%
[59]
  viability, T/C: 40%
[60]
  viability, T/C: 34.4%
